Source: patent US12692232B2, “Indole carboxamide compound, preparation therefor and use thereof” (NANJING RUISHUNING MEDICAL TECHNOLOGY CO., LTD., priority 2021, dated 2026)

Tested on: mouse model of renal fibrosis (UUO)
Test: Mouse model of renal fibrosis (unilateral ureteral obstruction, UUO)
Type: in vivo
Conditions: for urea nitrogen level: model 17.56±0.48; for serum creatinine level: model 32.48±0.87; for urine protein level: model 888.5±264.8; for extent of renal fibrosis, pathological staining (H&E, Masson, Sirius red): FIG. 2, control compound 25 mg/kg, losartan 50 mg/kg; for body weight compared with the UUO model group / kidney weight compared with the UUO model group: gavage once daily 14 days, not statistically different (P>0.05)
Procedure: The therapeutic effect of the compounds of the present invention (as exemplified by Compound 1-1 obtained in Example 1) on renal fibrosis was determined using a mouse model of renal fibrosis. The method was as follows:
Grouping of animals: male C57BL/6J mice aged 8 weeks were given adaptive feeding for 3 days and grouped into a sham operation group, a sham operation-treatment group, a Unilateral ureteral obstruction (UUO) model group, a low-dose (10 mg/kg) treatment group, a medium-dose (25 mg/kg) treatment group, a high-dose (50 mg/kg) treatment group, a medium-dose (25 mg/kg) treatment group of indole analogue 3-[(1-methyl-1H-indole-2-carbonyl)amino]propionic acid disclosed in CN2019107285315, and a positive control group of losartan (50 mg/kg), with 10 animals in each group. Mice in the model and the treatment groups were anesthetized by intraperitoneal injection of 0.5% sodium pentobarbital at a dose of 0.1 mL/10 g. The mice were fixed on the operating table and cut open in layers from the right side of the mid-abdomen to locate the left kidney, and the ends of the ureter were ligated, while the ureter was cut off between the two ligations; the sham operation group was operated as described above and the ligations were not performed. Post-operative organs were repositioned, sutured, and sterilized with iodophor after suturing was completed. Immediately after operation, the drug was administered by gavage once daily for 14 days. Urine sample collection: animals were placed in separate metabolic cages by group on days 0, 5, 10 and 14 after modelling, without food or water, and urine samples were collected from each group of mice.
The protein levels in urine were determined using Coomassie brilliant blue (CBB) method by using urine protein quantitative test kit (Nanjing Jiancheng Bioengineering Institute). CBB working solution was prepared according to the kit instructions. 0.05 mL of each urine sample was mixed with 3 mL of CBB working solution, the mixture was left to stand for 5 min, and the absorbance value of each sample was determined at 595 nm. The protein levels in each group of urine samples were calculated according to the protein standardization formula: urine protein levels (mg/L)=(measured OD−blank OD)/(standard OD−blank OD)×563 mg/L.
Collection of serum sample: orbital blood from each mouse was collected in an EP tube, placed at 37° C. for 20 minutes, and centrifuged to obtain the upper layer of serum.
Collection of plasma sample: orbital blood from each mouse was collected in an anticoagulation tube, mixed well and stored at 4° C. for later use.
Determination of creatinine levels in urine and serum by the picric acid colorimetric method: creatinine levels in urine and serum were determined by using the creatinine test kit (Nanjing Jiancheng Bioengineering Institute). According to the kit instructions, 1.5 mL of urine sample or serum sample and 0.5 mL of picric acid solution, 0.5 mL of 0.5 mol/L sodium hydroxide solution were mixed, heated in water bath at 37° C. for 10 minutes. The absorbance value of each sample was determined using a UV spectrophotometer at a wavelength of 510 nm. Creatinine levels in samples of each group were calculated according to the formula: creatinine level (μmol/L) in serum or urine=(measured OD value−blank OD value)/(standard OD value−blank OD value)×50 μmol/L×(dilution ratio 201).
Determination of urea nitrogen level in plasma by diacetyl monoxime method: urea nitrogen level was determined was determined by using blood urea nitrogen (BUN) test kit (Nanjing Jiancheng Bioengineering Institute). According to the kit instructions, 0.05 mL of anticoagulated plasma samples were mixed with 1 mL of oxime solution and 1 mL of acid working solution, and the mixtures were placed in a boiling water bath for 15 min. A UV-visible spectrophotometer was used to determine the absorbance values of each tube at a wavelength of 520 nm. […]

Structure (SMILES)	creatinine level reduced compared with the model group (25 mg/kg gavage 14 days)	urea nitrogen level reduced compared with the model group (25 mg/kg gavage 14 days)	urine protein level reduced compared with the model group (25 mg/kg gavage 14 days)	urea nitrogen level (25 mg/kg gavage 14 days)	serum creatinine level (25 mg/kg gavage 14 days)	urine protein level (25 mg/kg gavage 14 days)	extent of renal fibrosis, pathological staining (H&E, Masson, Sirius red)	body weight compared with the UUO model group	kidney weight compared with the UUO model group	also measured
Cn1c(C(=O)NCCC(=O)O)cc2ccccc21 [3-[(1-methyl-1H-indole-2-carbonyl)amino]propionic acid, reference compound]	18.3%	20.6%	30.1%	13.94 ± 0.42 mmol/L	26.52 ± 0.86 µmol/L	621 ± 81.3 mg/L	shows less improvement in fibrotic tissue proliferation and renal tubular lumen dilation	slight increase in body weight	slight decrease in kidney weight	–
CC(=O)OCCCNC(=O)c1c(C=O)c2ccccc2n1C [compound 1-1, propyl 3-[(3-formyl-1-methyl-1H-indole-2-carbonyl)amino]acetate]	20.7%	30.0%	37.7%	12.30 ± 0.33 mmol/L	25.76 ± 1.31 µmol/L	554 ± 143 mg/L	significantly attenuates tubular lumen dilatation and glomerular atrophy in a dose-dependent manner	slight increase in body weight	slight decrease in kidney weight	creatinine level reduced compared with the model group (10 mg/kg gavage 14 days): 17.2%; urea nitrogen level reduced compared with the model group (10 mg/kg gavage 14 days): 24.7%; urine protein level reduced compared with the model group (10 mg/kg gavage 14 days): 27.4%; urea nitrogen level (10 mg/kg gavage 14 days): 13.23 ± 0.62 mmol/L; serum creatinine level (10 mg/kg gavage 14 days): 26.88 ± 0.86 µmol/L; urine protein level (10 mg/kg gavage 14 days): 645 ± 165 mg/L; creatinine level reduced compared with the model group (50 mg/kg gavage 14 days): 27.6%; urea nitrogen level reduced compared with the model group (50 mg/kg gavage 14 days): 37.7%; urine protein level reduced compared with the model group (50 mg/kg gavage 14 days): 52.6%; urea nitrogen level (50 mg/kg gavage 14 days): 10.94 ± 0.42 mmol/L; serum creatinine level (50 mg/kg gavage 14 days): 23.52 ± 0.86 µmol/L; urine protein level (50 mg/kg gavage 14 days): 421 ± 82.3 mg/L
